Experimental data: US20240239786A1, “COMPOSITIONS AND METHODS FOR THE TREATMENT AND PREVENTION OF CANCER” (Yale University, priority 2021, published 2024)

Assays:
Type in all cases: cell-based
PEO1 cells [1] = assay: Caspase 3/7 assay, PEO1; conditions: 50 μM olaparib, 24 hr
Method: (§1) Cells were pre-treated with 30 μM DB4 for 1 hr and then treated with various concentrations of olaparib for 72 hr. Cell survival was determined by MTS cytotoxicity assay. Data are means±SD (N=3-4). […] EOB calculation was used to quantify the synergy of the combination of DB4 and various concentrations of olaparib in PEO1 or PEO4 cells as shown in FIG. 8A. EOB>0, synergism; EOB=0, additivity; EOB<0, antagonism. […] Cells were pre-treated with 30 μM DB4-F for 1 hr and then treated with various concentrations of olaparib for 72 hr. Cell survival was determined by MTS cytotoxicity assay. Data are means±SD (N=3-4). […] EOB calculation was used to quantify the synergy of the combination of DB4-F and various concentrations of olaparib in PEO1 or PEO4 cells as shown in FIG. 8B. […] Cell survival was determined by MTS cytotoxicity assay. […] Caspase 3/7 activity was expressed as RLU per μg/μl protein. […] Caspase 3/7 activity was expressed as RLU per μg/μl protein. […] Cells were treated and caspase 3/7 activity was measured as described in FIG. 8G and FIG. 8H.
(§2) Furthermore, the effects of DB4 on olaparib-induced apoptosis at 24 hr were evaluated. […]
(§3) The assay was performed as described previously (Lin Z P et al., 2018, PLOS One, 13:e0207399). […] Total protein concentration of cell lysates was determined as described above. Caspase 3/7 activity was expressed as luminescence units (RLU) per μg/μL protein for each sample.

PEO4 cells = assay: Caspase 3/7 assay, PEO4; conditions: 50 μM olaparib, 24 hr
Method: as §1, §2, §3

PEO1 cells [2] = assay: Flow cytometric EdU incorporation (DNA synthesis) assay, PEO1; conditions: for cell cycle distribution: 30 μM DB4 or 1 μM triapine; for time-dependent inhibition of DNA synthesis (EdU-positive cells): 30 μM DB4 or 1 μM triapine, 3, 6, 24 hr
Method: Cells were plated for 24 hr and then treated with 50 μM compounds for 72 hr. For a positive control, cells were treated with 1 μM triapine for 72 hr. The percentage of cell survival was determined by the MTS cytotoxicity assay. […] Cells were treated with 50 μM compounds or 1 μM triapine for 24 hr. During the last hour, cells were pulse-labeled with EdU, stained with the Click-iT EdU Alexa Fluor 488 Assay Kit, counterstained with 7-AAD, and subsequently analyzed by flow cytometry. EdU-positive cells were gated to determine the percentage of the S phase cell population. The bivariate plots of Alexa Fluor 488 (EdU-positive) and PE-Cy5 (7-AAD-positive) are shown. […] Cells were treated with 50 μM compounds or 1 μM triapine for 24 hr. During the last hour, cells were pulse-labeled with EdU, stained with the Click-iT EdU Alexa Fluor 488 Assay Kit, counterstained with 7-AAD, and subsequently analyzed by flow cytometry. EdU-positive cells were gated to determine the percentage of the S phase cell population. The percentages of DNA synthesis in cells treated with each of 10 compounds and triapine relative to the DMSO-treated control is calculated and shown. FIG. 2D depicts representative results of dNTP measurement on triapine and DB4 in PEO4 cells. Cells were treated with 1 μM triapine or 50 μM DB4 for 24 hr. Cells were extracted with 65% methanol for determination of each of dNTPs expressed as pmole/10^6 cells. Data are means±SD (N=3). *, p<0.05; **, p<0.01; ***, p<0.001, compared with the DMSO-treated control in each dNTP. […] PEO1 cells were pre-treated with 1 mM dA plus […], 10 mM dC plus 10 mM dT, or all dNs for 1 hr and then treated with various concentrations of DB4 or triapine for 72 hr. The percentage of cell survival was determined by the MTS cytotoxicity assay. Data are means±SD (N=3). *, p<0.05; **, p<0.01; ***, p<0.001, compared with the control in each concentration of DB4 or triapine. FIG. 2F depicts schematic representation of structures and molecular compound names of triapine, DB4, and A4.
PEO1 cells were treated with 30 μM DB4 or 1 μM triapine for indicated times, pulsed with EdU for 1 hr and subsequently assayed for DNA synthesis inhibition as described in FIG. 2B. The bivariate plots of Alexa Fluor 488 and PE-Cy5 were gated to determine % S phase cells. […] PEO4 cells were treated with 30 μM DB4 or 1 μM triapine for indicated times, pulsed with EdU for 1 hr and subsequently assayed for DNA synthesis inhibition as described in FIG. 2B. The bivariate plots of Alexa Fluor 488 and PE-Cy5 were gated to determine % S phase cells. […] The bivariate plots of Alexa Fluor 488 and PE-Cy5 shown in FIG. 6A and FIG. 6B were gated to determine % cells in G1, S, and G2/M phases. […] PEO4 cells were treated with 30 μM DB4 or 1 μM triapine for various time periods and subjected to western blot analysis for the levels of cyclin A2, p-CDK1/2, p-H1, p-Chk1, and HSC70. The HSC70 protein level was used as a loading control. Cropped gel images of protein bands are presented. Cyclin A2, p-CDK1/2, and p-H1 bands were from re-probing the same blot. p-Chk1 and HSC70 bands were from re-probing the same duplicated blot. […] The CDK2 activity is expressed by the percentage of the p-HI levels relative to that of the 0 hr control is shown. […] Protein was analyzed by western blotting for p-Chk1, p-ATR, p-RPA32, γH2AX, and HSC70. Cropped gel images of protein bands are presented. All protein bands were from re-probing the same blot. DSB end resection is assessed by the level of p-RPA32. […]

SMILES	effect on olaparib-induced caspase 3/7 activity (PEO1 cells [1])	effect on olaparib-induced caspase 3/7 activity (PEO4 cells; DB4 starting at 7.5 μM)	cell cycle distribution (PEO1 cells [2])	time-dependent inhibition of DNA synthesis (EdU-positive cells) (PEO1 cells [2])	inhibition at 50 µM (PEO1 cells [2]; Homo sapiens, 50 μM, 24 hr) [%]	caspase 3/7 activity, olaparib alone (PEO1 cells [1])	caspase 3/7 activity, olaparib alone (PEO4 cells)
C=CCn1c(SCc2cccc(Cl)c2)nnc1C1CCN(Cc2nc3ccccc3s2)CC1 [DB4, 2-[(4-{4-allyl-5-[(3-chlorobenzyl)thio]-4H-1,2,4-triazol-3-yl}-1-piperidinyl)methyl]-1,3-benzothiazole]	failed to enhance	markedly augmented	expansion of the G2/M population	gradual decline in the EdU-positive cell population	> 99		
O=C(c1cc(Cc2n[nH]c(=O)c3ccccc23)ccc1F)N1CCN(C(=O)C2CC2)CC1 [olaparib, reference compound]						pronounced increase in caspase 3/7 activity	minor increase in caspase 3/7 activity
NC(=S)NN=Cc1ncccc1N [triapine, 3-aminopyridine-2-carboxaldehyde-thiosemicarbazone, reference compound]			expansion of the G2/M population	prompt reduction in EdU-positive cells			
